Results on 4 compounds are retold here after patent publication US20230312577A1, “DUAL KINASE-BROMODOMAIN INHIBITORS” (MONASH UNIVERSITY, priority 2020, published 2023).

By IC50 is commonly meant the midpoint of a concentration-inhibition curve. As a reminder, the GI50 is the concentration at which growth is held to half of that of the control. Low values mean greater sensitivity of the cells, high ones lower sensitivity of the cells.

The structures appear in SMILES notation.

The target in assay [1] is T1, PI3K.
T1 construct: PI3K Enzyme Activity Assay IC50 (nM); other: 10 μM ATP, 180 μM phosphatidyl inositol, 60 min
Nature of the assay: PI3K enzyme activity assay (luminescence, ATP consumption, Kinase-Glo). It is filed as biochemical. The settings on record: 10 μM ATP, 180 μM phosphatidyl inositol, 60 min. How it is done: (§1) PI3K activity was determined using a luminescence assay measuring ATP consumption as described previously (J.-A. Pinson, Z. Zheng, M. S. Miller, D. K. Chalmers, I. G. Jennings, P. E. Thompson, L-Aminoacyl-triazine derivatives are isoform-selective PI3Kβ inhibitors that target nonconserved Asp862 of PI3Kb, ACS Med. Chem. Lett. 4 (2013) 206-210). PI3K enzyme activity was determined in 25 μl of 20 mM HEPES pH 7.5, 5 mM MgCl2 with 180 μM phosphatidyl inositol and 10 μMATP. After a 60 min incubation at room temperature the reaction was stopped by the addition of Kinase-Glo (Promega) followed by a further 15 min incubation. Luminescence was then read using a Fluostar plate reader (BMGLabtech).
(§2) Inhibitors were diluted in 20% (v/v) DMSO at the indicated concentrations in order to generate a concentration versus inhibition of enzyme activity curve which was then analysed using GraphPad Prism version 8.00 for Windows, (GraphPad Software, San Diego California USA) in order to calculate the IC50. Standard deviations for the calculated IC50's are within 25% of the mean.

Assay [2] deals with OPM2 cells. The assay can be described thus: Cell proliferation assay (ViaLight, cellular ATP). It is filed as cell-based. The settings on record: Homo sapiens, OPM-2, 120 h, 5 days, 5 μM to 1 nM. In a few lines:
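1×10^3 cells per well exposed to compounds at final 5 μM to 1 nM for 5 days. Viability read as cellular ATP by ViaLight luminescence, technical triplicates. GI50 computed from the dose–response.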

In assay [3] the target is GST-BRD4 (binding domain 1, amino acids 44-168) (Homo sapiens, UniProt O60885). The assay can be described thus: Bromodomain binding assay (FRET). The settings on record: BRD4 binding domain 1, tetracetylated histone 4 peptide. The protocol:
Inhibition of bromodomain binding was measured using a FRET (fluorescence resonance energy transfer) based assay. […] In the presence of the two detection reagents, streptavidin D2 and anti-GST-Eu (CisBio) binding trig-gers a FRET signal detected by fluorescence at 665 nm as measured using a Pherastar reader (BMG Labtech). Data was analysed using GraphPad Prism version 8.00 for Windows, (GraphPad Software, San Diego California USA) in order to calculate the IC50. Standard deviations for the calculated IC50's are within 25% of the mean.

In assay [4] the test system is PI3K. Nature of the assay: PI3K enzyme activity assay (luminescence, ATP consumption, Kinase-Glo). Type of assay: biochemical. How it is done:
as §1, §2
Background: Kinase-Glo reads ATP consumption through a luciferase reaction.

Assay [5] concerns MLL-AF9 cells (IBET-151-sensitive and IBET-151-resistant). Nature of the assay: Apoptosis assay in BET-inhibitor-resistant cells (Annexin V/PI). It is filed as cell-based, mouse. The settings on record: 1 μM, 72 h. How it is done:
Mouse AML cells; MLL-AF9 (IBET-151-sensitive and IBET-151-resistant) (5×10^4) were treated with indicated compounds for 72 h. Apoptotic analysis was performed by flow cytometry using Annexin V/propidium iodide (PI) stains. Data were collected on a BD LSR-Fortessa X20 (BD Biosciences) and analysed using FlowJo Software, version 10.0.7 (Tree Star). IC50 were calculated using the GraphPad Prism Software Version 7.0c. Data are representative of biological triplicates.

`CC(=O)N1c2ccc(-c3ccc(C(=O)NCCNC(=O)c4cn5cc(-c6cnc(N)nc6)nc(N6CCOCC6)c5n4)cc3)cc2CCC1C` (centres unmarked) [Cpd 009, N-(2-(4-(1-Acetyl-2-methyl-1,2,3,4-tetrahydroquinolin-6-yl)benzamido)ethyl)-6-(2-ami-nopyrimidin-5-yl)-8-morpholinoimidazo[1,2-a]pyrazine-2-carboxamide]: the IC50 in assay [1] is 100 to 500 nM; in assay [3], not above 100 nM. The GI50 in assay [2] is not above 100 nM.

As to `CC(=O)N1c2ccc(-c3ccc(C(=O)NCCCNC(=O)c4cn5cc(-c6cnc(N)nc6)nc(N6CCOCC6)c5n4)cc3)cc2CC[C@@H]1C` [Cpd 013, (S)-N-(3-(4-(1-Acetyl-2-methyl-1,2,3,4-tetrahydroquinolin-6-yl)benzamido)propyl)-6-(2-aminopyrimidin-5-yl)-8-morpholinoimidazo[1,2-a]pyrazine-2-carboxamide], the IC50 in assay [1] and in assay [3] was not above 100 nM each time. The compound further displayed a GI50 in assay [2] of more than 500 nM.

Take `CC(=O)N1c2ccc(-c3ccc(CNC(=O)c4cn5cc(-c6cnc(N)nc6)nc(N6CCOCC6)c5n4)cc3)cc2CC[C@H]1C` [Cpd 034, (R)-N-(4-(1-acetyl-2-methyl-1,2,3,4-tetrahydroquinolin-6-yl)benzyl)-6-(2-aminopyrimidin-5-yl)-8-morpholinoimidazo[1,2-a]pyrazine-2-carboxamide]: the “selectivity (PI3K)” value in assay [4] is “selective PI3K inhibitor”.

Take `COc1cc2c(cc1-c1c(C)noc1C)ncc1[nH]c(=O)n([C@H](C)c3ccccn3)c12` [I-BET151, reference compound]: the “apoptosis in I-BET151-resistant MLL-AF9 cells” value in assay [5] was “resistance to I-BET151 drug in the resistant cells was confirmed”.
